Assays:
[1] = biological target: Pyruvate kinase PKLR (Rattus norvegicus) (UniProt P12928); test: Ratio of Km(ADP)/Ki or Km for rat liver pyruvate kinase
[2] = biological target: Pyruvate kinase PKM (Rattus norvegicus) (UniProt P11980); test: Ratio of Km(ADP)/Ki or Km for rat muscle pyruvate kinase
Rattus norvegicus [3] = species on record: Rattus norvegicus; test: Relative inhibitory potency as ratio of muscle and liver pyruvate kinases
[4] = biological target: Pyruvate kinase PKLR (Rattus norvegicus) (UniProt P12928); test: Relative inhibitory potency as ratio of kidney and liver pyruvate kinases
Rattus norvegicus [5] = species on record: Rattus norvegicus; test: Relative half maximal velocity of Pyruvate kinase to Phosphoenolpyruvate was determined
[6] = biological target: Pyruvate kinase PKM (Rattus norvegicus) (UniProt P11980); test: (§1) Relative half maximal velocity of Pyruvate kinase and Phosphoenolpyruvate
[7] = biological target: Pyruvate kinase PKLR (Rattus norvegicus) (UniProt P12928); test: as §1
[8] = biological target: Pyruvate kinase PKM (Rattus norvegicus) (UniProt P11980); test: Ratio of Km(ADP)/Ki or Km for rat muscle pyruvatre kinase; (inhibitory potency at 2.35 mM)
[9] = biological target: Pyruvate kinase PKM (Rattus norvegicus) (UniProt P11980); test: as §1; remark: listed apart in the source
[10] = system: Nc1nc(N)c2ncn(C3O[C@H](COP(=O)(O)OP(=O)(O)O)[C@@H](O)[C@H]3O)c2n1; test: (§2) Michaelis-Menten constant for inhibition of pyruvate kinase obtained from rat muscle (PK-M) was determined using ADP as competitive inhibitor
[11] = system: CNc1nc2c(N)ncnc2n1C1O[C@H](COP(=O)(O)OP(=O)(O)O)[C@@H](O)[C@H]1O; test: as §2
[12] = system: CO[C@@H]1[C@H](O)[C@@H](COP(=O)(O)OP(=O)(O)O)O[C@H]1n1cnc2c(N)ncnc21; test: as §2
[13] = system: C=CC[C@]1(COP(=O)(O)OP(=O)(O)O)OC(n2cnc3c(N)ncnc32)[C@H](O)[C@@H]1O; test: as §2
[14] = system: C[C@H](OP(=O)(O)OP(=O)(O)O)[C@H]1OC(n2cnc3c(N)ncnc32)[C@H](O)[C@@H]1O; test: as §2
[15] = system: Nc1ncnc2c1ncn2[C@@H]1O[C@H](COP(=O)(O)OP(=O)(O)O)[C@@H](O)[C@H]1O; test: as §2
[16] = system: Nc1ncnc2c1nc(Br)n2[C@@H]1O[C@H](COP(=O)(O)OP(=O)(O)O)[C@@H](O)[C@H]1O; test: as §2
[17] = system: CC(=O)N(C)CCCCN(C)c1ncnc2c1ncn2[C@@H]1O[C@H](COP(=O)(O)OP(=O)(O)O)[C@@H](O)[C@H]1O; test: as §2
[18] = system: CNc1nc(N)c2ncn(C3O[C@H](COP(=O)(O)OP(=O)(O)O)[C@@H](O)[C@H]3O)c2n1; test: as §2
[19] = system: CSc1nc(N)c2ncn([C@@H]3O[C@H](COP(=O)(O)OP(=O)(O)O)[C@@H](O)[C@H]3O)c2n1; test: as §2
[20] = system: Nc1nc(N)c2ncn(C3O[C@H](COP(=O)(O)OP(=O)(O)O)[C@@H](O)[C@H]3O)c2n1; test: (§3) Michaelis-Menten constant for inhibition of pyruvate kinase obtained from rat liver (PK-L) was determined using ADP as competitive inhibitor
[21] = system: CNc1nc2c(N)ncnc2n1C1O[C@H](COP(=O)(O)OP(=O)(O)O)[C@@H](O)[C@H]1O; test: as §3
[22] = system: CO[C@@H]1[C@H](O)[C@@H](COP(=O)(O)OP(=O)(O)O)O[C@H]1n1cnc2c(N)ncnc21; test: as §3
[23] = system: C=CC[C@]1(COP(=O)(O)OP(=O)(O)O)OC(n2cnc3c(N)ncnc32)[C@H](O)[C@@H]1O; test: as §3
[24] = system: C[C@H](OP(=O)(O)OP(=O)(O)O)[C@H]1OC(n2cnc3c(N)ncnc32)[C@H](O)[C@@H]1O; test: as §3
[25] = system: Nc1ncnc2c1ncn2[C@@H]1O[C@H](COP(=O)(O)OP(=O)(O)O)[C@@H](O)[C@H]1O; test: as §3
[26] = system: Nc1ncnc2c1nc(Br)n2[C@@H]1O[C@H](COP(=O)(O)OP(=O)(O)O)[C@@H](O)[C@H]1O; test: as §3
[27] = system: CC(=O)N(C)CCCCN(C)c1ncnc2c1ncn2[C@@H]1O[C@H](COP(=O)(O)OP(=O)(O)O)[C@@H](O)[C@H]1O; test: as §3
[28] = system: CNc1nc(N)c2ncn(C3O[C@H](COP(=O)(O)OP(=O)(O)O)[C@@H](O)[C@H]3O)c2n1; test: as §3
[29] = system: CSc1nc(N)c2ncn([C@@H]3O[C@H](COP(=O)(O)OP(=O)(O)O)[C@@H](O)[C@H]3O)c2n1; test: as §3

Sequence of Pyruvate kinase PKLR (Rattus norvegicus) (P12928 whole entry): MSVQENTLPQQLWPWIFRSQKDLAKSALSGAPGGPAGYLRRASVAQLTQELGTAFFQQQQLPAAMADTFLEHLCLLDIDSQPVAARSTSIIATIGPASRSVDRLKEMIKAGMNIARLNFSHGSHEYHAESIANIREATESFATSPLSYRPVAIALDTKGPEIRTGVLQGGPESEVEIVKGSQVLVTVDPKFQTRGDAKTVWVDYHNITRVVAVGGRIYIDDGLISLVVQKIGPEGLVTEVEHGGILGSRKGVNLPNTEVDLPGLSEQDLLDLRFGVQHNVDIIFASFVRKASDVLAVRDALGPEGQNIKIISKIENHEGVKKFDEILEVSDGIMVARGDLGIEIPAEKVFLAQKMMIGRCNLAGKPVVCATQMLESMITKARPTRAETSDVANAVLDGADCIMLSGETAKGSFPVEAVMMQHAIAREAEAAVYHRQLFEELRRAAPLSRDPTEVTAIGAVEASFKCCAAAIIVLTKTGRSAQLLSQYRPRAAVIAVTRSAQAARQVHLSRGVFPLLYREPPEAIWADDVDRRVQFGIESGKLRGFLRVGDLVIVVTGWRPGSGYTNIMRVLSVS
Sequence of Pyruvate kinase PKLR (Rattus norvegicus), P12928 (P12928 whole entry): as above
Sequence of Pyruvate kinase PKM (Rattus norvegicus), P11980 (P11980 whole entry): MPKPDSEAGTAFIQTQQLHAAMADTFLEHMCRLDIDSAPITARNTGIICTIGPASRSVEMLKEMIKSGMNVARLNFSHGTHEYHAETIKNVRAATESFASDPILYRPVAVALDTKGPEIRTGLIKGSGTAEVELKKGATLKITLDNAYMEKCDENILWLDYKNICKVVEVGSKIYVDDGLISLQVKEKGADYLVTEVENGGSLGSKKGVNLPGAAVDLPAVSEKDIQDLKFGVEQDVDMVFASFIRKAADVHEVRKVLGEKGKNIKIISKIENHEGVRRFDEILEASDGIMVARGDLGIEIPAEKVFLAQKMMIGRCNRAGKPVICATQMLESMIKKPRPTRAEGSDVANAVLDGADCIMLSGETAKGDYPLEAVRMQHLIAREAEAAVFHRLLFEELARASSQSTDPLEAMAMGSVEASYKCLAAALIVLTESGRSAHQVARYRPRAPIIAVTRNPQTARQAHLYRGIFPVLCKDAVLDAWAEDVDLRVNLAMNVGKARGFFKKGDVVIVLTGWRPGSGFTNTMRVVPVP
Sequence of Pyruvate kinase PKM (Rattus norvegicus) (P11980 whole entry): as above

Inhibitory potency [1] | Inhibitory potency [2] | Relative inhibitory potency (Rattus norvegicus [3]) | Relative inhibitory potency [4] | Relative Vmax (Rattus norvegicus [5]) | Relative Vmax [6] | Relative Vmax [7] | Compound | other results
3.3 | 2 | 0.61 | 0.61 | 90 | 77 | 95 | Nc1nc(N)c2ncn(C3O[C@H](COP(=O)(O)OP(=O)(O)O)[C@@H](O)[C@H]3O)c2n1 (some centres undefined) | –
0.19 | – | 3.1 | – | 0 | 0 | – | CCCNc1nc2c(N)ncnc2n1C1O[C@H](COP(=O)(O)OP(=O)(O)O)[C@@H](O)[C@H]1O (some centres undefined) | Inhibitory potency [8]: 0.58
0.13 | 0.18 | 1.4 | 1.3 | – | 6 | 14 | Nc1ncnc2c1nc(Br)n2[C@@H]1O[C@H](COP(=O)(O)OP(=O)(O)O)[C@@H](O)[C@H]1O | Relative Vmax [9]: 6
0.86 | 0.74 | 0.86 | 1.04 | 94 | 90 | 100 | CO[C@@H]1[C@H](O)[C@@H](COP(=O)(O)OP(=O)(O)O)O[C@H]1n1cnc2c(N)ncnc21 | –
0.14 | 0.325 | 2.3 | – | – | 0 | – | CC1O[C@@H]2[C@H](O1)[C@@H](COP(=O)(O)OP(=O)(O)O)O[C@H]2n1cnc2c(N)ncnc21 (some centres undefined) | Relative Vmax [9]: 0
0.14 | 1 | 7.1 | 1.2 | 0.7 | < 1 | < 1 | CCNc1nc2c(N)ncnc2n1C1O[C@H](COP(=O)(O)OP(=O)(O)O)[C@@H](O)[C@H]1O (some centres undefined) | –
2.5 | 2.7 | 1.1 | 1.4 | 85 | 77 | 86 | CNc1nc(N)c2ncn(C3O[C@H](COP(=O)(O)OP(=O)(O)O)[C@@H](O)[C@H]3O)c2n1 (some centres undefined) | –

Second part, the compound before the results:

Compound | Inhibitory potency [1] | Inhibitory potency [2] | Relative inhibitory potency (Rattus norvegicus [3]) | Relative inhibitory potency [4] | Relative Vmax (Rattus norvegicus [5]) | Relative Vmax [6] | Relative Vmax [7] | other results
CC(=O)N(C)CCCCN(C)c1ncnc2c1ncn2[C@@H]1O[C@H](COP(=O)(O)OP(=O)(O)O)[C@@H](O)[C@H]1O | 0.43 | 0.14 | 0.33 | 0.67 | – | – | – | –
CSc1nc(N)c2ncn([C@@H]3O[C@H](COP(=O)(O)OP(=O)(O)O)[C@@H](O)[C@H]3O)c2n1 | 5 | 4.7 | 0.94 | 1.12 | 67 | 77 | 72 | –
CCSc1nc2c(N)ncnc2n1C1O[C@H](COP(=O)(O)OP(=O)(O)O)[C@@H](O)[C@H]1O (some centres undefined) | 0.036 | 0.14 | 3.9 | 3.6 | 0 | 0 | 0 | –
Pyruvate kinase PKM (Rattus norvegicus), P11980 | – | – | – | – | – | – | – | Km [10]: 260 µM; Km [11]: 560 µM; Km [12]: 700 µM; Km [13]: 1300 µM; Km [14]: 2700 µM; Km [15]: 520 µM; Km [16]: 2900 µM; Km [17]: 3600 µM; Km [18]: 190 µM; Km [19]: 110 µM
CNc1nc2c(N)ncnc2n1C1O[C@H](COP(=O)(O)OP(=O)(O)O)[C@@H](O)[C@H]1O (some centres undefined) | 1.9 | 0.93 | 0.49 | 0.45 | 49 | 55 | 40 | –
CSc1nc2c(N)ncnc2n1C1O[C@H](COP(=O)(O)OP(=O)(O)O)[C@@H](O)[C@H]1O (some centres undefined) | 0.04 | 0.12 | 3 | 2.5 | 0 | 0 | 0 | –
Nc1ncnc2c1ncn2[C@@H]1O[C@H](COP(=O)(O)OP(=O)(O)O)[C@@H](O)[C@H]1O | – | – | – | – | 100 | 100 | 100 | –
C[C@H](OP(=O)(O)OP(=O)(O)O)[C@H]1OC(n2cnc3c(N)ncnc32)[C@H](O)[C@@H]1O (some centres undefined) | 0.23 | 0.19 | 0.83 | 0.74 | 15 | 15 | 26 | –
C=CC[C@]1(COP(=O)(O)OP(=O)(O)O)OC(n2cnc3c(N)ncnc32)[C@H](O)[C@@H]1O (some centres undefined) | – | – | – | – | 11 | 7 | 52 | –
Pyruvate kinase PKLR (Rattus norvegicus), P12928 | – | – | – | – | – | – | – | Km [20]: 90 µM; Km [21]: 160 µM; Km [22]: 350 µM; Km [23]: 530 µM; Km [24]: 1300 µM; Km [25]: 300 µM; Km [26]: 2300 µM; Km [27]: 700 µM; Km [28]: 120 µM; Km [29]: 61 µM
CO[C@H]1[C@@H](O)[C@H](n2cnc3c(N)ncnc32)O[C@@H]1COP(=O)(O)OP(=O)(O)O | 0.0094 | 0.056 | 6 | 7.6 | > 0 | > 0 | > 0 | –
C[C@@H](OP(=O)(O)OP(=O)(O)O)[C@H]1OC(n2cnc3c(N)ncnc32)[C@H](O)[C@@H]1O (some centres undefined) | 0.056 | 0.12 | 2.1 | 1.1 | > 0 | > 0 | > 0 | –
